Test results published in ChEMBL document CHEMBL4316583, “In Vitro and in Vivo Antitumor Effects of Plant-Derived Miliusanes and Their Induction of Cellular Senescence” (J Med Chem, 2019).
pIC50: −log10 of the molar value. The source made the active and inactive calls. The calls are words filed in the database; no cut-off is given here.

Experiments:
HCT-116 [1] = experiment: Antitumor activity against human HCT116 cells xenografted in nude BALB/c mouse assessed as tumor growth inhibition at 20 mg/kg, ip administered twice a week for 3 weeks relative to control; format: functional; conditions: HCT-116, ip, 504 h, read-out: TGI
HCT-116 [2] = experiment: Antitumor activity against human HCT116 cells xenografted in nude BALB/c mouse assessed as tumor growth inhibition at 30 mg/kg, ip administered twice a week for 3 weeks relative to control; format: functional; conditions: HCT-116, ip, 504 h, read-out: TGI
[3] = Ratio of IC50 for human A2780DDP cells to IC50 for human A2780 cells after 72 hrs by MTS assay; format: functional
[4] = Toxicity in BALB/c mouse assessed as mortality at 10 mg/kg, ip dosed daily for 28 days; format: organism-based; conditions: in vivo, 672 h
[5] = Toxicity in nude BALB/c mouse xenografted with human HCT116 cells assessed as body weight loss at 20 to 30 mg/kg, ip administered twice a week for 3 weeks; format: organism-based; conditions: in vivo, 504 h
[6] = Toxicity in nude BALB/c mouse xenografted with human HCT116 cells assessed as body weight loss at 7.5 mg/kg, ip measured on day 10 and 11; format: organism-based; conditions: in vivo
HCT-116 [7] = experiment: Induction cell cycle arrest in human HCT116 cells assessed as accumulation in G1 phase at 1.6 uM after 12 hrs by propidium iodide-staining based flow cytometry; format: functional
A549 = experiment: Cytotoxicity against human A549 cells assessed as cell growth inhibition after 48 hrs by sulforhodamine B assay; format: functional, cell-based; conditions: A549, 48 h
A-375 [8] = experiment: Cytotoxicity against human A375 cells assessed as cell growth inhibition after 48 hrs by sulforhodamine B assay; format: functional, cell-based; conditions: A-375, 48 h
HCT-116 [9] = experiment: Induction of cellular senescence in human HCT116 cells assessed as up-regulation of p21 protein expression at 0.1 to 0.4 ug/ml after 48 hrs by Western blot analysis; format: functional, cell-based
HCT-116 [10] = experiment: Antiproliferative activity against human HCT116 cells assessed as inhibition of colony formation at 0.66 to 2.63 uM after 14 days by crystal violet-staining based assay; format: functional, cell-based
A-375 [11] = experiment: Antitumor activity against human A375 cells xenografted in nude BALB/c mouse assessed as tumor growth inhibition at 7.5 mg/kg, ip administered every other day for 23 days relative to control; format: functional; conditions: A-375, ip, 552 h, read-out: TGI
[12] = Ratio of IC50 for human A2780/TAX cells to IC50 for human A2780 cells after 72 hrs by MTS assay; format: functional
HCT-116 [13] = experiment: Induction of apoptosis in human HCT116 cells assessed as viable cells at 1.32 uM after 48 hrs by annexin V/propidium iodide-double staining based flow cytometry (reference value: 88.3%); format: functional; conditions: HCT-116, 48 h, read-out: Activity
HCT-116 [14] = experiment: Induction of cellular senescence in human HCT116 cells at 1.32 uM after 48 hrs by SA-beta-gal-staining based assay; format: functional, cell-based
[15] = Ratio of IC50 for human HCT116/VP35 cells to IC50 for human HCT116 cells after 72 hrs by MTS assay; format: functional
[16] = Ratio of IC50 for human HCT116/VM46 cells to IC50 for human HCT116 cells after 72 hrs by MTS assay; format: functional
HCT-116 [17] = experiment: Induction of apoptosis in human HCT116 cells assessed as early apoptotic cells at 1.32 uM after 48 hrs by annexin V/propidium iodide-double staining based flow cytometry (reference value: 4.8%); format: functional
HCT-116 [18] = experiment: Induction cell cycle arrest in human HCT116 cells assessed as reduction in accumulation in S phase at 1.6 uM after 12 hrs by propidium iodide-staining based flow cytometry; format: functional
Mus musculus [19] = experiment: Induction of cellular senescence in BALB/c mouse xenografted with human HCT116 cells assessed as up-regulation of p16 protein expression at 10 mg/kg, administered every other day for 3 weeks by immunohistochemical analysis; format: functional, organism-based
HCT-116 [20] = experiment: Antitumor activity against human HCT116 cells xenografted in nude BALB/c mouse assessed as suppression of excised tumor size at 20 mg/kg, ip administered twice a week for 3 weeks relative to control; format: functional
A-375 [21] = experiment: Antitumor activity against human A375 cells xenografted in nude BALB/c mouse assessed as suppression of tumor volume at 7.5 mg/kg, ip administered every other day for 23 days relative to control; format: functional; conditions: A-375, ip, 552 h, read-out: TGI
HeLa [22] = experiment: Antitumor activity against human HeLa cells xenografted in nude BALB/c mouse assessed as suppression of excised tumor size at 10 mg/kg, ip administered every other day for 21 days and observed for 6 days before sacrifice relative to control; format: functional
Mus musculus [23] = experiment: Effect on p27 protein expression in BALB/c mouse xenografted with human HCT116 cells at 10 mg/kg, administered every other day for 3 weeks by immunohistochemical analysis; format: functional, organism-based
HCT-116 [24] = experiment: Antitumor activity against human HCT116 cells xenografted in nude BALB/c mouse assessed as tumor growth inhibition at 7.5 mg/kg, ip administered daily for 21 days relative to control; format: functional; conditions: HCT-116, ip, 504 h, read-out: TGI
HCT-116 [25] = experiment: Antitumor activity against human HCT116 cells xenografted in nude BALB/c mouse assessed as suppression of excised tumor size at 30 mg/kg, ip administered twice a week for 3 weeks relative to control; format: functional
Mus musculus [26] = experiment: Induction of cellular senescence in BALB/c mouse xenografted with human HCT116 cells assessed as up-regulation of p21 protein expression at 10 mg/kg, administered every other day for 3 weeks by immunohistochemical analysis; format: functional, organism-based
HeLa [27] = experiment: Antitumor activity against human HeLa cells xenografted in nude BALB/c mouse assessed as tumor growth inhibition at 10 mg/kg, ip administered every other day for 21 days and observed for 6 days before sacrifice relative to control; format: functional; conditions: read-out: TGI
HCT-116 [28] = experiment: Growth inhibition human HCT116 cells after 72 hrs by MTS assay; format: functional, cell-based; conditions: HCT-116, 72 h
[29] = system: Panel NCI-60 (60 carcinoma cell lines); experiment: Growth inhibition human NCI60 cells after 48 hrs by sulforhodamine B assay; format: functional
HCT-116 [30] = experiment: Antitumor activity against human HCT116 cells xenografted in nude BALB/c mouse assessed as reduction in volume of growing subcutaneous tumor at 20 to 30 mg/kg, ip administered twice a week for 3 weeks; format: functional, organism-based
HT-29 = experiment: Growth inhibition human HT-29 cells after 72 hrs by MTS assay; format: functional, cell-based
HCT-116 [31] = experiment: Induction of apoptosis in human HCT116 cells assessed as necrotic cells at 1.32 uM after 48 hrs by annexin V/propidium iodide-double staining based flow cytometry (reference value: […]); format: functional
HCT-116 [32] = experiment: Induction of apoptosis in human HCT116 cells assessed as late apoptotic cells at 1.32 uM after 48 hrs by annexin V/propidium iodide-double staining based flow cytometry (reference value: 4.6%); format: functional
A2780 = experiment: Growth inhibition human A2780 cells after 72 hrs by MTS assay; format: functional, cell-based; conditions: A2780, 72 h
HCT-116 [33] = experiment: Induction cell cycle arrest in human HCT116 cells assessed as accumulation in S phase at 1.6 uM after 24 hrs by propidium iodide-staining based flow cytometry; format: functional
HCT-116 [34] = experiment: Antiproliferative activity against human HCT116 cells xenografted in BALB/c mouse at 10 mg/kg, administered every other day for 3 weeks by Ki67-staining based assay; format: functional, organism-based
HCT-116 [35] = experiment: Induction of cellular senescence in human HCT116 cells assessed as up-regulation of p21 protein expression at 1.32 uM after 48 hrs in presence of p21 siRNA by SA-beta-gal-staining based Western blot analysis; format: functional, cell-based
HCT-116 [36] = experiment: Cytotoxicity against human HCT116 cells assessed as cell growth inhibition after 24 hrs by sulforhodamine B assay; format: functional, cell-based; conditions: HCT-116, 24 h
HCT-116 [37] = experiment: Cytotoxicity against human HCT116 cells assessed as cell growth inhibition after 48 hrs by sulforhodamine B assay; format: functional, cell-based; conditions: HCT-116, 48 h

With `CC(C)=CCC/C(C)=C/[C@H]1OC(=O)C[C@]12C[C@H](O)C=CC2=O` the inhibition in vivo at 20 mg/kg (HCT-116 [1]) was 68.7%, the inhibition in vivo at 30 mg/kg (HCT-116 [2]) was 72.7% and the “Ratio IC50” value [3] was 1. The Activity [4] was “Non-Toxic”, the Activity [5] was 1 g and the Activity [6] was “Toxic”. The Activity (HCT-116 [7]) was “Active”, the pIC50 (A549) was 5.61 and the pIC50 (A-375 [8]) was 5.82. For the same molecule, the Activity (HCT-116 [9]) was “Active”, the Activity (HCT-116 [10]) was “Active” and the inhibition in vivo at 7.5 mg/kg (A-375 [11]) was 12.8%. For the same molecule, the “Ratio IC50” value [12] was 0.8, the viability at 1.32 µM (HCT-116 [13]) was 88.2% and the Activity (HCT-116 [14]) was “Active”. For the same molecule, the “Ratio IC50” value [15] was 1.1, the “Ratio IC50” value [16] was 0.9 and the Activity (HCT-116 [17]) was 4.4%. For the same molecule, the Activity (HCT-116 [18]) was “inactive”, the Activity (Mus musculus [19]) was “Active” and the Activity (HCT-116 [20]) was 72.7%. For the same molecule, the inhibition in vivo at 7.5 mg/kg (A-375 [21]) was 20.6%, the Activity (HeLa [22]) was 31.5% and the Activity (Mus musculus [23]) was “inactive”. For the same molecule, the inhibition in vivo at 7.5 mg/kg (HCT-116 [24]) was 29.9%, the Activity (HCT-116 [25]) was 68.7% and the Activity (Mus musculus [26]) was “Active”. It also gave an inhibition in vivo at 10 mg/kg (HeLa [27]) of 30%, a pIC50 (HCT-116 [28]) of 5.82 and a GI50 [29] of 30 to 4790 nM. For the same molecule, the Activity (HCT-116 [30]) was “Active”, the “growth inhibition (GI)” value (HT-29) was “Active” and the Activity (HCT-116 [31]) was 2.5%. The Activity (HCT-116 [32]) was 4.9%, the pIC50 (A2780) was 5.91 and the Activity (HCT-116 [33]) was “inactive”. For the same molecule, the Activity (HCT-116 [34]) was “Active”, the Activity (HCT-116 [35]) was “inactive” and the pIC50 (HCT-116 [36]) was 5.44. The pIC50 (HCT-116 [37]) was 5.58 to 5.70.
